Source: ChEMBL document CHEMBL5030514, “Discovery of Anti-TNBC Agents Targeting PTP1B: Total Synthesis, Structure-Activity Relationship, In Vitro and In Vivo Investigations of Jamunones” (J Med Chem, 2021)
The source made the active and inactive calls. The rule behind the calls is not given here.

What was measured:
[1] = test system: MDA-MB-231; assay: Antiproliferative activity against human MDA-MB-231 cells measured by MTT assay; assay type: functional, cell-based
[2] = test system: MDA-MB-231; assay: Cytotoxicity against human MDA-MB-231 cells measured by MTT assay; assay type: functional, cell-based
[3] = test system: MCF7; assay: Cytotoxicity against human MCF-7 cells measured by MTT assay; assay type: functional, cell-based
[4] = Selective index, ratio of IC50 for human 293T cells to IC50 of MDA-MB-231 cells; assay type: toxicity; conditions: 293T cells versus MDA-MB-231 cells, read-out: Selectivity Index
[5] = Selective index, ratio of IC50 for HUVEC cells to IC50 of MCF-7 cells; assay type: toxicity; conditions: human, HUVEC cells versus MCF-7 cells; read-out: Selectivity Index
[6] = test system: MDA-MB-231; assay: Induction of mitochondrial apoptosis in human MDA-MB-231 cells assessed as chromatin shrinkage by Hoechst 33258 staining based fluorescence microscopic assay; assay type: functional, cell-based
[7] = test system: MDA-MB-231; assay: Induction of mitochondrial apoptosis in human MDA-MB-231 cells assessed as formation of apoptotic bodies by Hoechst 33258 staining based fluorescence microscopic assay; assay type: functional, cell-based
[8] = test system: MCF7; assay: Induction of mitochondrial apoptosis in human MCF-7 cells assessed as total apoptotic cells by fluorescein isothiocyanate -annexin V/PI double staining based flow cytometric analysis (reference value: 4.4%); assay type: functional
[9] = test system: MDA-MB-231; assay: Induction of mitochondrial apoptosis in human MDA-MB-231 cells assessed as decrease in mitochondrial membrane potential levels at 5 uM measured after 24 hrs by flow cytometry; assay type: functional; set-up: scale not given: the % may be the effect or the level left
[10] = test system: MCF7; assay: Induction of mitochondrial apoptosis in human MCF-7 cells assessed as decrease in mitochondrial membrane potential levels at 5 uM measured after 24 hrs by flow cytometry; assay type: functional; set-up: scale not given: the % may be the effect or the level left
[11] = test system: MDA-MB-231; assay: Induction of apoptosis in human MDA-MB-231 cells assessed as increase in Bax protein expression at 0.56 to 5 uM measured after 24 hrs by Western blot analysis; assay type: functional, cell-based; conditions: dose 0.56-5 µM
[12] = test system: MDA-MB-231; assay: Induction of apoptosis in human MDA-MB-231 cells assessed as upregulation of cleaved poly(ADP-ribose) polymerase level at 0.56 to 5 uM measured after 24 hrs by Western blot analysis; assay type: functional, cell-based; conditions: dose 0.56-5 µM
[13] = test system: MCF7; assay: Induction of apoptosis in human MCF-7 cells assessed as upregulation of cleaved poly(ADP-ribose) polymerase level at 1.67 to 15 uM measured after 24 hrs by Western blot analysis; assay type: functional, cell-based; conditions: dose 1.67-15 µM
[14] = test system: MDA-MB-231; assay: Cell cycle arrest in human MDA-MB-231 cells assessed as downregulation of CDK4 expression by Western blot analysis; assay type: functional, cell-based
[15] = test system: MCF7; assay: Cell cycle arrest in human MCF-7 cells assessed as downregulation of cyclin D1 expression by Western blot analysis; assay type: functional, cell-based
[16] = test system: MCF7; assay: Cell cycle arrest in human MCF-7 cells assessed as downregulation of cyclin D3 expression by Western blot analysis; assay type: functional, cell-based
[17] = test system: MCF7; assay: Cell cycle arrest in human MCF-7 cells assessed as downregulation of cyclin E1 expression by Western blot analysis; assay type: functional, cell-based
[18] = test system: MDA-MB-231; assay: Effect on Akt expression in human MDA-MB-231 cells by Western blot analysis; assay type: functional, cell-based
[19] = test system: MDA-MB-231; assay: Inhibition of PI3K p85 phosphorylation in human MDA-MB-231 cells by Western blot analysis; assay type: cell-based
[20] = test system: MDA-MB-231; assay: Antitumour activity against human MDA-MB-231 cells xenografted in BALB/c nude mouse assessed as tumour growth inhibition at 15 mg/kg, ip administered once for every other day for 20 days relative to control; assay type: functional; conditions: MDA-MB-231, ip, 480 h, time 20 day, read-out: TGI
[21] = test system: MDA-MB-231; assay: Antitumour activity against human MDA-MB-231 cells xenografted in BALB/c nude mouse assessed as tumour growth inhibition at 30 mg/kg, ip administered once for every other day for 20 days relative to control; assay type: functional; conditions: MDA-MB-231, ip, 480 h, time 20 day, read-out: TGI
[22] = Toxicity in human MDA-MB-231 cells xenografted in BALB/c nude mouse assessed as change in body weight at 15 to 30 mg/kg, ip administered once for every other day for 20 days relative to control; assay type: organism-based; conditions: in vivo, 480 h, dose 15-30 mg/kg, time 20 day
[23] = test system: MDA-MB-231; assay: Antitumour activity against human MDA-MB-231 cells xenografted in BALB/c nude mouse assessed as upregulation of cleaved poly(ADP-ribose) polymerase level at 15 to 30 mg/kg, ip administered once for every other day for 20 days by Western blot analysis; assay type: functional, organism-based; conditions: dose 15-30 mg/kg, time 20.0 day
[24] = test system: MDA-MB-231; assay: Antitumour activity against human MDA-MB-231 cells xenografted in BALB/c nude mouse assessed as upregulation of p21 level at 15 to 30 mg/kg, ip administered once for every other day for 20 days by Western blot analysis; assay type: functional, organism-based; conditions: dose 15-30 mg/kg, time 20.0 day
[25] = test system: MDA-MB-231; assay: Antitumour activity against human MDA-MB-231 cells xenografted in BALB/c nude mouse assessed as downregulation of cyclin E1 level at 15 to 30 mg/kg, ip administered once for every other day for 20 days by Western blot analysis; assay type: functional, organism-based; conditions: dose 15-30 mg/kg, time 20.0 day
[26] = test system: MCF7; assay: Effect on Akt expression in human MCF7 cells by Western blot analysis; assay type: functional, cell-based
[27] = test system: MDA-MB-231; assay: Induction of mitochondrial apoptosis in human MDA-MB-231 cells assessed as viable cells at 5 uM measured after 24 hrs by FITC -annexin V/PI double staining based flow cytometric analysis (Rvb =94.3%); assay type: functional; conditions: read-out: Activity
[28] = test system: MDA-MB-231; assay: Induction of mitochondrial apoptosis in human MDA-MB-231 cells assessed as early apoptotic cells at 5 uM measured after 24 hrs by FITC -annexin V/PI double staining based flow cytometric analysis (reference value: 1.2%); assay type: functional
[29] = test system: MDA-MB-231; assay: Induction of mitochondrial apoptosis in human MDA-MB-231 cells assessed as late apoptotic cells at 5 uM measured after 24 hrs by FITC -annexin V/PI double staining based flow cytometric analysis (reference value: 2.3%); assay type: functional
[30] = test system: MDA-MB-231; assay: Induction of mitochondrial apoptosis in human MDA-MB-231 cells assessed as early apoptotic cells at 5 uM measured after 24 hrs by FITC -annexin V/PI double staining based flow cytometric analysis (reference value: 2.2%); assay type: functional
[31] = test system: MDA-MB-231; assay: Cell cycle arrest in human MDA-MB-231 cells assessed as accumulation of cells at G2/M phase at 5 uM measured after 24 hrs by propidium iodide staining based flow cytometry (reference value: 27.5%); assay type: functional
[32] = target: T1, Tyrosine-protein phosphatase non-receptor type 1 (Homo sapiens, UniProt P18031); assay: Inhibition of PTP1B (unknown origin)
T1 sequence (P18031 whole entry): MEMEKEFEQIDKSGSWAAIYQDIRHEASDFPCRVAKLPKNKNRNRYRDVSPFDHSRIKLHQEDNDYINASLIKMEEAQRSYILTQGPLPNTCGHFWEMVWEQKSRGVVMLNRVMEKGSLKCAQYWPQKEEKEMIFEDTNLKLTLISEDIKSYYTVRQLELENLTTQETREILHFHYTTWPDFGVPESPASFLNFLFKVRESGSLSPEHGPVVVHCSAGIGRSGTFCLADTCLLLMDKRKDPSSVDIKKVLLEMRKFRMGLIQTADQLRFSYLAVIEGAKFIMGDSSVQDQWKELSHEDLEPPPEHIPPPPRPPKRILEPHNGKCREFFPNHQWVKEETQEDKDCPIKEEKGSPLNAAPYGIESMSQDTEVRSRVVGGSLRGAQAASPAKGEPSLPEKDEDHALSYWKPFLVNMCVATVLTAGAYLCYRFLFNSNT

With CCCC/C=C/CCCCCCCCCC1(O)CC(=O)c2c(O)c(C)c(O)c(C)c2O1 (configuration not stated) the IC50 [1] was 6.79 µM, the IC50 [2] was 6.79 µM and the IC50 [3] was 17.5 µM. For the same compound, the selectivity ratio [4] was 5.35, the selectivity ratio [5] was 2.64 and the Activity [6] was “Active”. The Activity [7] was “Active”, the Activity [8] was 13.6% and the Activity [9] was 62.2%. For the same compound, the Activity [10] was 68.7%, the Activity [11] was “Dose-Dependent Effect” and the Activity [12] was “Active”. For the same compound, the Activity [13] was “Active”, the Activity [14] was “Dose-Dependent Effect” and the Activity [15] was “Dose-Dependent Effect”. The Activity [16] was “Dose-Dependent Effect”, the Activity [17] was “Dose-Dependent Effect” and the Activity [18] was “inactive”. The inhibition [19] was “Dose-Dependent Effect”, the inhibition in vivo at 15 mg/kg [20] was 53.6% and the inhibition in vivo at 30 mg/kg [21] was 79.3%. The Activity [22] was “Not Active”, the Activity [23] was “Active” and the Activity [24] was “Active”. The Activity [25] was “Active”, the Activity [26] was “inactive” and the viability at 5 µM [27] was 82%. It also gave an Activity [28] of 4.8%, an Activity [29] of 7% and an Activity [30] of 6.1%. It also gave an Activity [31] of 18.5% and an IC50 [32] of 1.8 µM.
